Results on twelve compounds are retold here after patent US9334267B2, “RAF inhibitor compounds” (Deciphera Pharmaceuticals, LLC, priority 2012, dated 2016).

In one test the test system is Sk-Mel-2 cells. Briefly: SK-Mel-2 cell proliferation assay (resazurin). Type of test: cell-based. Particulars: Homo sapiens, N-Ras mutation B-Raf wild type, read-out: Cell Proliferation Inhibition IC50, nM SK-Mel-2.
A further test concerns the target T1, human wild type C-Raf (Homo sapiens, UniProt P04049).
T1 construct: made in house
In words: Enzymatic assay of C-Raf kinase activity (Raf/MEK1 ATPase, coupled PK/LDH, A340). Type of test: biochemical. Conditions: read-out: Enzyme IC50, nM C-Raf. The protocol: Test compounds are evaluated for their inhibitory activities against one or more of human wild type B-Raf, human wild type C-Raf, human B-Raf V600E, human B-Raf V600E+T529I or human B-Raf V600E+G468A. T529I is a threonine to isoleucine B-Raf gatekeeper mutation and G468A is a B-Raf secondary mutation at G1403C in exon 11. The enzymatic assays of B-Raf, C-Raf and B-Raf mutations evaluate a property of Raf and MEK1 complex, which in the presence of ATP, catalyzes an enhanced ATP hydrolysis (Rominger, et al, Arch. Biochem. Biophys. 2007, 464: 130-137; US Patent Publication No. 2006/0211073). The ADP formed is monitored by the well-known coupled PK/LDH (pyruvate kinase/lactate dehydrogenase) system in the form of NADH oxidation, which can be monitored and detected spectrophotometrically by absorbance at 340 nm (A340; for principal of the method see Schindler et al, Science, 2000, 289: 1938-1942). Raf activated MEK1 ATPase activity is a property shared by all forms of Raf proteins.
Test compounds are evaluated for their inhibitory activities against one or more of wild type B-Raf, wild type C-Raf, B-Raf V600E, B-Raf V600E+T529I and B-Raf V600E+G468A. T529I is a B-Raf gatekeeper mutation and G468A is a B-Raf secondary mutation. The enzymatic assays of B-Raf, C-Raf and B-Raf mutations evaluate a property of Raf and MEK1 complex, which in the presence of ATP, catalyzes an enhanced ATP hydrolysis (Rominger, et al, Arch. Biochem. Biophys. 2007, 464: 130-137). The ADP formed is monitored by the well-known coupled PK/LDH (pyruvate kinase/lactate dehydrogenase) system in the form of NADH oxidation, which can be monitored and detected by absorbance at 340 nm (A340; for principal of the method see Schindler et al, Science, 2000, 289: 1938-1942). Raf activated MEK1 ATPase activity is a property shared by all forms of Raf proteins. In the B-Raf wild type enzymatic assay, the reaction mixture contains 1.2 nM B-Raf, 30 nM MEK1, 1000 uM ATP, 3.5 units (per 100 ul) of PK, 5 units (per 100 ul) of LDH, 1 mM phosphoenol pyruvate (PEP), and 280 uM of NADH. In the C-Raf assay, the reaction mixture contains 0.6 nM C-Raf, 26 nM MEK1, 2000 uM ATP, and the same amount of PK, LDH, PEP and NADH as above. In the B-Raf V600E assay, the reaction mixture contains […] B-Raf V600E, 26 nM MEK1, 200 uM ATP and the same amount of PK, LDH, PEP and NADH as above. In the B-RafV600E+T529I assay, the reaction mixture contains 6.2 nM B-Raf V600E+T529I, 30 nM MEK1, 200 uM ATP and the same amount of PK, LDH, PEP and NADH as above. In the B-Raf V600E+G468A assay, the reaction mixture contains 3.5 nM B-Raf, 30 nM MEK1, 200 uM ATP and the same amount of PK, LDH, PEP and NADH as above. All assays are started by mixing the above mixture with test compound and monitoring at A340 continuously for approximately 5 hr. […] In the aforementioned assays, the enzyme constructs can be screened prior to or after cleavage of the N-terminal purification tag.

For a further test, the system named is A375res cells. In words: Proliferation assay in vemurafenib-resistant melanoma cells A375res. Conditions: Homo sapiens, 72 h, read-out: absolute IC50 values.
Another test deals with Colo205 cells. Briefly: Colo-205 cell proliferation assay (resazurin). Type of test: cell-based. Conditions: Homo sapiens; Colo-205 cells, V600E mutation; read-out: Cell Proliferation Inhibition IC50, nM Colo-205. The protocol: (§1) Colo205 cells (catalog #HB-8307) are obtained from the American Type Culture Collection (ATCC, Manassas, Va.). Briefly, cells are grown in RPMI 1640 supplemented with 10% characterized fetal bovine serum (Invitrogen, Carlsbad, Calif.), 1 mM sodium pyruvate, and 1% Penicillin/Streptomycin/L-Glutamine at 37 degrees Celsius, 5% CO2, and 95% humidity. Cells are allowed to expand until reaching 30-60% confluency at which point they are subcultured or harvested for assay use. A serial dilution of test compound is dispensed into a 384-well black clear bottom plate in triplicate. One thousand two-hundred fifty cells are added per well in 50 μL complete growth medium in the 384-well plate. Plates are incubated for 67 hours at 37 degrees Celsius, 5% CO2, and 95% humidity. At the end of the incubation period, 10 μL of a 440 μM solution of resazurin (Sigma, St. Louis, Mo.) in PBS is added to each well of the plate and plates are incubated for an additional 5 hours at 37 degrees Celsius, 5% CO2, and 95% humidity. Plates are read on a Synergy2 reader (Biotek, Winooski, Vt.) using an excitation of 540 nm and an emission of 600 nm. Data is analyzed using Prism software (Graphpad, San Diego, Calif.) to calculate IC50 values.
(§2) The A375, HT-29, and Colo-205 cells (ATCC) harbor a V600E mutation.

The next test has as its system A375 cells. In words: A375 cell proliferation assay (CellTiter-Blue/resazurin). The class given is cell-based. Particulars: Homo sapiens, A-375, V600E mutation, read-out: Cell Proliferation Inhibition IC50, nM A375. On the procedure: as §1, with “A375” for “Colo205”, “#CRL-1619)” for “#HB-8307)”, “DMEM High Glucose” for “RPMI 1640”, “Calif.)” for “Calif.), 1 mM sodium pyruvate,”, “70-95%” for “30-60%”, “Six hundred twenty-five” for “One thousand two-hundred fifty”
as §2
For orientation: Resazurin is reduced to fluorescent resorufin, in cell work by metabolically active cells.

pIC50: −log10 of the molar value.

T1 sequence (P04049 whole entry): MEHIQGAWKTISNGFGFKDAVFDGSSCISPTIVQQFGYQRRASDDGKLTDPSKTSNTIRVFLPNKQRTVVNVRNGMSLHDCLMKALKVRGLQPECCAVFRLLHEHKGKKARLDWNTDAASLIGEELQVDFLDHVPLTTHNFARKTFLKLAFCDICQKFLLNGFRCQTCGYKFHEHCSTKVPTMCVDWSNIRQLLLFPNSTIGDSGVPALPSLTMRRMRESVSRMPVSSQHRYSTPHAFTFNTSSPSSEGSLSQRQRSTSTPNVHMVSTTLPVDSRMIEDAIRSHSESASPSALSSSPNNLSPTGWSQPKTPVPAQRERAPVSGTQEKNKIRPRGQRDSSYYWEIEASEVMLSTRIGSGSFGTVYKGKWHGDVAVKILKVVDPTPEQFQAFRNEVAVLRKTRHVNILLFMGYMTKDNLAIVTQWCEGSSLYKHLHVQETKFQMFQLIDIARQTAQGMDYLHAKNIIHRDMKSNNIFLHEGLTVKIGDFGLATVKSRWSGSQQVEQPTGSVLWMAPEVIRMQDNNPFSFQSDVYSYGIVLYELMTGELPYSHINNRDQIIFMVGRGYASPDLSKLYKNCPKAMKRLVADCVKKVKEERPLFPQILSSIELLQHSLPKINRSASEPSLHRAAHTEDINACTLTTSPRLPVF

As usually defined, the pIC50 is the negative decadic logarithm of the IC50, by convention in mol/L. As to `Cc1cc(F)c(NC(=O)NCCC(C)(C)C)cc1-c1cc2cnc(NCCN(C)C)nc2nc1C` [Example 17, 1-[5-[2-(2-Dimethylaminoethylamino)-7-methyl-pyrido[2,3-d]pyrimidin-6-yl]-2-fluoro-4-methyl-phenyl]-3-(3,3-dimethylbutyl)urea], the IC50 with Sk-Mel-2 cells is 100 to 1000 nM; at human wild type C-Raf it was less than 150 nM; in the test on Colo205 cells it was less than 100 nM; in the test with A375 cells, less than 100 nM. Also, the pIC50 in the test on A375res cells was 5.96 to 7.82.
Take `Cc1cc(F)c(NC(=O)NCCC(C)(C)C)cc1-c1cc2cnc(N)nc2nc1C` [Example 20, 1-(5-(2-Amino-7-methylpyrido[2,3-d]pyrimidin-6-yl)-2-fluoro-4-methylphenyl)-3-(3,3-dimethylbutyl)urea]: the IC50 in the test on Sk-Mel-2 cells was less than 100 nM; at human wild type C-Raf, less than 150 nM; in the test on Colo205 cells, less than 100 nM; in the test with A375 cells it was less than 100 nM. Besides, in the test with A375res cells, the pIC50 was 5.96 to 7.82.
On to `Cc1cc(F)c(NC(=O)NCCC(C)(C)C)cc1-c1cc2cnc(NCCO)nc2nc1C` [Example 16, 1-(3,3-Dimethylbutyl)-3-[2-fluoro-5-[2-(2-hydroxyethylamino)-7-methyl-pyrido[2,3-d]pyrimidin-6-yl]-4-methyl-phenyl]urea], for which the IC50 in the test with Sk-Mel-2 cells is 100 to 1000 nM; at human wild type C-Raf, less than 150 nM; with Colo205 cells, less than 100 nM; in the test on A375 cells, less than 100 nM. Besides, in the test with A375res cells, the pIC50 is 5.96 to 7.82.
For the compound `CNc1ncc2cc(-c3cc(NC(=O)NCCC(C)(C)C)c(F)cc3C)cnc2n1` [Example 35, 1-(3,3-Dimethylbutyl)-3-[2-fluoro-4-methyl-5-(2-methylaminopyrido[2,3-d]pyrimidin-6-yl)phenyl]urea], the IC50 in the test with Sk-Mel-2 cells is less than 100 nM; at human wild type C-Raf it was less than 150 nM; with Colo205 cells, less than 100 nM; with A375 cells it was less than 100 nM. The pIC50 with A375res cells was 5.96 to 7.82.
`Cc1cc(F)c(NC(=O)NCCC(C)(C)C)cc1-c1cc2cnc(NCc3cn(C)cn3)nc2nc1C` [Example 22, 1-(3,3-Dimethylbutyl)-3-(2-fluoro-4-methyl-5-(7-methyl-2-(((1-methyl-1H-imidazol-4-yl)methyl)amino)pyrido[2,3-d]pyrimidin-6-yl)phenyl)urea]: the IC50 in the test with Sk-Mel-2 cells is 100 to 1000 nM; on human wild type C-Raf, less than 150 nM; in the test on Colo205 cells it was less than 100 nM; in the test on A375 cells, less than 100 nM.
As for `COCCNc1ncc2cc(-c3cc(NC(=O)NCCC(C)(C)C)c(F)cc3C)c(C)nc2n1` [Example 5, 1-(3,3-Dimethylbutyl)-3-(2-fluoro-5-(2-((2-methoxyethyl)amino)-7-methylpyrido[2,3-d]pyrimidin-6-yl)-4-methylphenyl)urea], the IC50 in the test with Sk-Mel-2 cells is 100 to 1000 nM; on human wild type C-Raf, less than 150 nM; with Colo205 cells, less than 100 nM; in the test with A375 cells it was less than 100 nM.
As for `CNc1ncc2cc(-c3cc(NC(=O)NC[C@H](O)C(C)(C)C)c(F)cc3C)cnc2n1` [Example 18, 1-[2-Fluoro-4-methyl-5-(2-methylaminopyrido[2,3-d]pyrimidin-6-yl)phenyl]-3-[(2R)-2-hydroxy-3,3-dimethyl-butyl]urea], the IC50 with Sk-Mel-2 cells is 100 to 1000 nM; at human wild type C-Raf it was less than 150 nM; with Colo205 cells, less than 100 nM; with A375 cells it was 100 to 1000 nM.
As for `COCCNc1ncc2cc(-c3cc(NC(=O)NC4CC(C)(C)C4)c(F)cc3C)c(C)nc2n1` [Example 31, 1-(3,3-Dimethylcyclobutyl)-3-(2-fluoro-5-(2-((2-methoxyethyl)amino)-7-methylpyrido[2,3-d]pyrimidin-6-yl)-4-methylphenyl)urea], the IC50 in the test with Sk-Mel-2 cells is 100 to 1000 nM; at human wild type C-Raf, less than 150 nM; in the test with Colo205 cells, less than 100 nM; in the test on A375 cells it was less than 100 nM.
Take `CNc1ncc2cc(-c3ccc(F)c(NC(=O)NCCC(C)(C)C)c3)c(C)nc2n1` [Example 2, 1-(3,3-Dimethylbutyl)-3-(2-fluoro-5-(7-methyl-2-(methylamino)pyrido[2,3-d]pyrimidin-6-yl)phenyl)urea]: the IC50 with Sk-Mel-2 cells was less than 100 nM; on human wild type C-Raf it was less than 150 nM; in the test on Colo205 cells, less than 100 nM; in the test on A375 cells, less than 100 nM.
Regarding `CNc1ncc2cc(-c3cc(NC(=O)NCC(O)C(C)(C)C)c(F)cc3C)cnc2n1` (stereo not shown) [Example 8, 1-[2-Fluoro-4-methyl-5-(2-methylaminopyrido[2,3-d]pyrimidin-6-yl)phenyl]-3-(2-hydroxy-3,3-dimethyl-butyl)urea], the IC50 was 100 to 1000 nM in the test with Sk-Mel-2 cells, less than 150 nM at human wild type C-Raf, less than 100 nM in the test on Colo205 cells and 100 to 1000 nM in the test on A375 cells.
With `CNc1ncc2cc(-c3cc(NC(=O)NCCC(C)(C)C)c(F)cc3F)c(C)nc2n1` [Example 1, 1-(2,4-Difluoro-5-(7-methyl-2-(methylamino)pyrido[2,3-d]pyrimidin-6-yl)phenyl)-3-(3,3-dimethylbutyl)urea], the IC50 with Sk-Mel-2 cells is 100 to 1000 nM; on human wild type C-Raf it was less than 150 nM; in the test on Colo205 cells, less than 100 nM; with A375 cells, less than 100 nM.
Take `CC(=O)Nc1ncc2cc(-c3cc(NC(=O)NCCC(C)(C)C)c(F)cc3C)c(C)nc2n1` [Example 33, N-(6-(5-(3-(3,3-Dimethylbutyl)ureido)-4-fluoro-2-methylphenyl)-7-methylpyrido[2,3-d]pyrimidin-2-yl)acetamide]: the IC50 is 100 to 1000 nM in the test on Sk-Mel-2 cells, less than 150 nM on human wild type C-Raf, less than 100 nM in the test with Colo205 cells and less than 100 nM in the test on A375 cells.
